Results taken from patent publication US20260234136A1, “ISOXAZOLIDINES AS RIPK1 INHIBITORS AND USE THEREOF” (GENZYME CORPORATION, priority 2023, published 2026).
Converted amounts (≈) assume the structure as drawn.

Columns and labels:
[1] = physchem; settings: 50 mM phosphate buffer, 25 °C, pH 7.4, aqueous buffer, thermodynamic from solid
[2] = system: U937 cells; assay: Cellular assay in U937 cells to measure the activity of RIPK1-inhibitors on cell death (necroptosis); type: cell-based; settings: Homo sapiens, U-937, 50 μM zVAD.fmk and 100 ng/ml recombinant human TNFα, overnight (18 to 24 hrs), MTS readout

solubility at 16 h [1] [µM]	SMILES	IC50 [2] [nM]
> 1150	Cc1ccc([C@@H]2CCON2C(=O)C2CCN(c3cc(N4CCCC4=O)ncn3)CC2)cn1 [Example 82, 1-[6-[4-[(3S)-3-(6-methylpyridin-3-yl)-1,2-oxazolidine-2-carbonyl]piperidin-1-yl]pyrimidin-4-yl]pyrrolidin-2-one]	10000
> 1080	Cc1ccc([C@@H]2CCON2C(=O)C2CCN(c3ccnc(N4CCC(C)(C)C4=O)n3)CC2)cn1 [Example 84, 3,3-dimethyl-1-[4-[4-[(3S)-3-(6-methylpyridin-3-yl)-1,2-oxazolidine-2-carbonyl]piperidin-1-yl]pyrimidin-2-yl]pyrrolidin-2-one]	8130
> 1080	Cc1ccc([C@@H]2CCON2C(=O)C2CCN(c3nccc(N4C(=O)CCC4(C)C)n3)CC2)cn1 [Example 88, 5,5-dimethyl-1-[2-[4-[(3S)-3-(6-methylpyridin-3-yl)-1,2-oxazolidine-2-carbonyl]piperidin-1-yl]pyrimidin-4-yl]pyrrolidin-2-one]	1360
> 1130	O=C1OCCN1c1ccnc(N2CCC(C(=O)N3OCC[C@H]3c3cncc(F)c3)CC2)n1 [Example 91, 3-[2-[4-[(3S)-3-(5-fluoropyridin-3-yl)-1,2-oxazolidine-2-carbonyl]piperidin-1-yl]pyrimidin-4-yl]-1,3-oxazolidin-2-one]	7
> 1040	CO[C@@H]1CCCN(c2ccnc(N3CCC(C(=O)N4OCC[C@H]4c4ccc(C)nc4)CC3)n2)C1=O [Example 93, (3R)-3-methoxy-1-[2-[4-[(3S)-3-(6-methylpyridin-3-yl)-1,2-oxazolidine-2-carbonyl]piperidin-1-yl]pyrimidin-4-yl]piperidin-2-one]	436
> 1040	CO[C@H]1CCCN(c2ccnc(N3CCC(C(=O)N4OCC[C@H]4c4ccc(C)nc4)CC3)n2)C1=O [Example 94, (3S)-3-methoxy-1-[2-[4-[(3S)-3-(6-methylpyridin-3-yl)-1,2-oxazolidine-2-carbonyl]piperidin-1-yl]pyrimidin-4-yl]piperidin-2-one]	216
> 1170	Cc1nc([C@@H]2CCON2C(=O)C2CCN(c3nccc(N4CCCC4=O)n3)CC2)co1 [Example 95, 1-[2-[4-[(3S)-3-(2-methyl-1,3-oxazol-4-yl)-1,2-oxazolidine-2-carbonyl]piperidin-1-yl]pyrimidin-4-yl]pyrrolidin-2-one]	26
> 1030	CO[C@@H]1CCCN(c2ccnc(N3CCC(C(=O)N4OCC[C@H]4c4cncc(F)c4)CC3)n2)C1=O [Example 96, (3R)-1-[2-[4-[(3S)-3-(5-fluoropyridin-3-yl)-1,2-oxazolidine-2-carbonyl]piperidin-1-yl]pyrimidin-4-yl]-3-methoxypiperidin-2-one]	149
> 1030	CO[C@H]1CCCN(c2ccnc(N3CCC(C(=O)N4OCC[C@H]4c4cncc(F)c4)CC3)n2)C1=O [Example 97, (3S)-1-[2-[4-[(3S)-3-(5-fluoropyridin-3-yl)-1,2-oxazolidine-2-carbonyl]piperidin-1-yl]pyrimidin-4-yl]-3-methoxypiperidin-2-one]	86
> 1070	Cc1ncc([C@@H]2CCON2C(=O)C2CCN(c3nccc(-c4cc(N)nn4C)n3)CC2)cc1F [Example 102, [1-[4-(5-amino-2-methylpyrazol-3-yl)pyrimidin-2-yl]piperidin-4-yl]-[(3S)-3-(5-fluoro-6-methylpyridin-3-yl)-1,2-oxazolidin-2-yl]methanone]	1

SMILES	solubility at 16 h [1] [µM]	IC50 [2] [nM]
O=C1CCCN1c1ccnc(N2CC[C@@H](C(=O)N3OCC[C@H]3c3cnccn3)C3(CC3)C2)n1 [Example 100, 1-[2-[(8R)-8-[(3S)-3-pyrazin-2-yl-1,2-oxazolidine-2-carbonyl]-5-azaspiro[2.5]octan-5-yl]pyrimidin-4-yl]pyrrolidin-2-one]	269 (≈ 121 µg/mL)	12
Cc1cncc([C@@H]2CCON2C(=O)C2CCN(c3ncc(F)c(N4CCC5(CC5)C4=O)n3)CC2)c1 [Example 103, 5-[5-fluoro-2-[4-[(3S)-3-(5-methylpyridin-3-yl)-1,2-oxazolidine-2-carbonyl]piperidin-1-yl]pyrimidin-4-yl]-5-azaspiro[2.4]heptan-4-one]	> 1040	6
O=C(C1CCN(c2ncc(F)c(N3CCC4(CC4)C3=O)n2)CC1)N1OCC[C@H]1c1cncc(F)c1 [Example 104, 5-[5-fluoro-2-[4-[(3S)-3-(5-fluoropyridin-3-yl)-1,2-oxazolidine-2-carbonyl]piperidin-1-yl]pyrimidin-4-yl]-5-azaspiro[2.4]heptan-4-one]	> 1030	2
